Legend:
[1] = test system: inflammatory bowel disease-induced mouse model (DSS); test: Histopathological symptom analysis (colon length, histological state and score) in 2% DSS mouse model; assay type: in vivo
Method: After the experiment was completed, the mice were euthanized with CO2 and the bowels were excised. Next, the bowels were put in cold 1×DPBS and the remaining mesenteric adipose tissue was isolated. At this time, the colon length was measured. Next, the tail end of the colon was opened and wound up with scissors to obtain colon tissue. The obtained colon tissue was fixed in 10% neutral buffered formalin (Sigma-Aldrich, HT501128-4L, St. Louis, Mo., USA) at room temperature for 48 hours and then treated in a tissue processor (Excelsior ES, Thermo scientific, Waltham, Mass., USA) for 12 hours. The processed tissue was sectioned and paraffinized using a microtome (Microm, HM 340E, Thermo Scientific, Waltham, Mass., USA) and an embedding system (HistoStar, Thermo Scientific, Waltham, Mass., USA). Next, the processed tissue was stained with hematoxylin and eosin, and visualized under an optical microscope (Motic, BA310, Redding, Calif., USA) to confirm the histopathological state, and the histopathological state was scored to histological score according to the criteria in the following [Table 2].
(§1) Specifically, female C57BL/6 mice were fed with a 2% DSS solution or DPBS together with drinking water for 7 days from Day 0 of the experiment by the same method as that described in <Example 1>, DPBS or 5 mg/kg TDCA was administered to the mice by oral gavage one time a day for 6 days from Day 1 of the experiment, and the body weight and DAI were measured daily. As a control, mice freely fed with drinking water were used. Next, the mice were sacrificed on Days 5 and 7 of the experiment by the same method as that described in <Example 2>, and histopathological symptom analysis was performed.
as §1, with “or 10, 5, 2.5, or 1” for “or 5”, “1” for “1 of”, “used.” for “used. Next, the mice were sacrificed on Days 5 and 7 of the experiment by the same method as that described in <Example 2>, and histopathological symptom analysis was performed.”
Next, the mice were sacrificed on Day 8 of the experiment by the same method as that described in <Example 2>, and histopathological symptom analysis was performed.
The mice were sacrificed on Day 8 of the experiment by the same method as that described in <Example 2>, and the colon length was measured.

[2] = test system: lamina propria mononuclear cells (LPMC) in the colon tissue; test: Inflammatory cell analysis (FACS of LPMC from colon tissue) in 2% DSS mouse model; assay type: in vivo; settings: Day 7; for numbers of CD11b+, Ly6g+, Ly6c+, CD3+, CD4+, CD8+, CD19+, and MHCII+CD11c+ LPMCs in the colon tissue: FIG. 7A
Method: A colon tissue was obtained from a mouse which had been subjected to an experiment by the same method as that described in <Example 2> and put into 30 ml of EDTA and dissociated by being stirred at 37° C. for 30 minutes in order to remove mucus. Next, the tissue was drained with a strainer (70 μm) and washed with warm DPBS. The washing process was repeated a total of 4 to 5 times. An enzyme mixture was prepared by adding 2.35 ml of RPMI 1640 or DMEM, 100 μl of enzyme D, 50 μl of enzyme R, and 12.5 μl of enzyme A to a gentleMACS C tube (Miltenyi Biotec, 130-096-334, Bergisch Gladbach, Germany). The tissue was transferred to the gentleMACS C tube containing the enzyme mixture and dissociated using the gentleMACS Dissociator (Miltenyi Biotec, 130-093-235, Bergisch Gladbach, Germany). Next, the reaction was conducted at 37° C. for 40 minutes in a thermal incubator (Thermo scientific, BB-15, Waltham, Mass., USA) under continuous rotation using a MACSmix Tube Rotator. The digested cells were resuspended in 4 ml of 40% Percoll solution. […]
In order to confirm changes in the number of inflammatory cells, FACS analysis was performed. […] Next, the cells were washed two times with DPBS, resuspended in 200 μl DAPI, then analyzed using a flow cytometer (LSR Fortessa cytometer, Mississauga, Canada), and graphed.
(§2) Specifically, female C57BL/6 mice were fed with a 2% DSS solution together with drinking water for 7 days from Day 0 of the experiment by the same method as that described in <Example 1>, DPBS or 5 mg/kg TDCA was administered to the mice by oral gavage one time a day for 6 days from Day 1 of the experiment, and the body weight and DAI were measured daily. […]
as §2, with “gavage” for “gavage one time a day for 6 days”, “DSS administration or 2 days before DSS administration,” for “the experiment,”

[3] = 2% DSS 7 days, 5 mg/kg TDCA oral gavage, FIG. 2B
[4] = 2% DSS 7 days, 10, 5, 2.5, or 1 mg/kg TDCA, Day 8, FIG. 5B

**Q.** For C[C@H](CCC(=O)NCCS(=O)(=O)O)[C@H]1CC[C@H]2[C@@H]3CC[C@@H]4C[C@H](O)CC[C@]4(C)[C@H]3C[C@H](O)[C@]12C [TDCA, sodium taurodeoxycholic acid], which colon length change ([1]; 2% DSS 7 days, 5 mg/kg TDCA oral gavage one time a day for 6 days, FIG. 2A) is on record?
**A.** The colon length change was “the decrease in colon length was slight”.

**Q.** What about the average histological score ([1]; 2% DSS 7 days, 5 mg/kg TDCA oral gavage, DSS+DPBS group about 7, FIG. 2C) of the same compound?
**A.** The average histological score was “about 4”.

**Q.** What about the “epithelial cell defects (histological state)” value [1, 3] of the same compound?
**A.** Its value is “not observed”.

**Q.** What about the “infiltration of inflammatory cells into the mucous membrane” value [1, 3] of the same compound?
**A.** Its value is “slight”.

**Q.** What about the ulcer ([1]; 2% DSS 7 days, 5 mg/kg TDCA oral gavage, FIG. 2C) of the same compound?
**A.** Its ulcer is “the ulcer was alleviated”.

**Q.** What about the colon length change ([1]; 2% DSS 7 days, 10, 5, 2.5, or 1 mg/kg TDCA, Day 8, FIG. 5A) of the same compound?
**A.** The colon length change was “the decrease in colon length was slight”.

**Q.** What about the “epithelial cell defects (histological state)” value [1, 4] of the same compound?
**A.** The value was “not observed”.

**Q.** And the “infiltration of inflammatory cells into the mucous membrane” value [1, 4]?
**A.** The value was “alleviated”.

**Q.** And the colon length change ([1]; 2% DSS 7 days, TDCA at 5 and 10 mg/kg, Day 8, FIG. 5A)?
**A.** Its colon length change is “the decrease in colon length was slighter”.

**Q.** And the average histological score ([1]; 2% DSS 7 days, TDCA at 5 and 10 mg/kg, Day 8, FIG. 5C)?
**A.** Its average histological score is “about 4”.

**Q.** And the ulcer alleviating effect ([1]; 2% DSS 7 days, TDCA at 5 and 10 mg/kg, Day 8, FIGS. 5B and 5C)?
**A.** The ulcer alleviating effect was “superior”.

**Q.** And the colon length change ([1]; DSS+TDCA group: 5 mg/kg TDCA from Day 1 of DSS, Day 8, FIG. 6C)?
**A.** The colon length change was “the decrease in colon length was suppressed”.

**Q.** And the colon length change ([1]; DSS+preTDCA group: 5 mg/kg TDCA from 2 days before DSS, Day 8, FIG. 6C)?
**A.** Its colon length change is “the decrease in colon length was suppressed”.

**Q.** What about the “numbers of CD11b+, Ly6g+, and Ly6c+ LPMCs in the colon tissue” value ([2]; 2% DSS 7 days, 5 mg/kg TDCA oral gavage, vs DSS+DPBS group, FIG. 3A) of the same compound?
**A.** Its value is “decreased”.

**Q.** What about the “numbers of CD11b+, Ly6g+, Ly6c+, CD3+, CD4+, CD8+, CD19+, and MHCII+CD11c+ LPMCs in the colon tissue” value ([2]; DSS+TDCA group: 5 mg/kg TDCA from Day 1 of DSS) of the same compound?
**A.** Its value is “decreased”.

**Q.** What about the “numbers of CD11b+, Ly6g+, Ly6c+, CD3+, CD4+, CD8+, CD19+, and MHCII+CD11c+ LPMCs in the colon tissue” value ([2]; DSS+preTDCA group: 5 mg/kg TDCA from 2 days before DSS) of the same compound?
**A.** Its value is “decreased”.

Source: patent US20210386761A1, “COMPOSITION FOR PREVENTING OR TREATING INFLAMMATORY BOWEL DISEASE, CONTAINING, AS ACTIVE INGREDIENT, TAURODEOXYCHOLIC ACID OR PHARMACEUTICALLY ACCEPTABLE SALT THEREOF” (SHAPERON INC., priority 2019, published 2021)
